Experimental data published in patent publication US4831049A, “Pyrrolizidine compounds, and their use as antiarrhythmic agents” (Suntory Limited, priority 1984, dated 1989).

Experiments:
[1] = system: ventricular flutter and fibrillation; test: Antiarrhythmic activity: prevention of ventricular flutter and fibrillation in mice caused to inhale chloroform; type: in vivo, male mice of ddy strain; details: for ED50: Mus musculus, sc, 0.5 h, subcutaneous, 30 minutes before chloroform inhalation, Litchfield and Wilcoxon, 95% confidence limit in parentheses
Description: In accordance with the method described by J. W. Lawson [Journal of pharmacology and Experimental Therapeutics, 160, 22, (1966)], male mice of ddy strain were caused to inhale chloroform and when respiration was arrested, electrocardiography was performed to observe the ventricular flutter and fibrillation. These abnormalities of the cardiac ventricle are prevented if an antiarrhythmic agent is previously administered. Several different doses of the compound of this invention were subctaneously administered to mice in group of 29 to 40 animals and, after an interval of 30 minutes, the animals were caused to inhale chloroform. The prophylactic effects of these doses on ventricular flutter and fibrillation were estimated and the 50% effective dose (ED50) and its 95% confidence limit were calculated by the method of Litchfield and Wilcoxon [Journal of Pharmacology and Experimental Therapeutics 96, 99, (1949)].

[2] = 50% lethal dose (LD50) by the up and down method; therapeutic index; type: in vivo; details: mouse, in vivo; male mice, bodyweight 18 to 22 g; up and down method
[3] = system: male mice; test: as above; type: in vivo; details: for Therapeutic index: ratio of LD50 to ED50

Cc1cccc(C)c1NC(=O)C(C)C12CCCN1CCC2 (stereo not drawn) [N-(2,6-dimethylphenyl)-2-(8-pyrrolizidine)propionamide]
ED50 [1]: 23 mg/kg | LD50 [2]: 92.1 mg/kg | Therapeutic index [3]: 4.0

Cc1cccc(C)c1NC(=O)[C@H](C)C12CCCN1CCC2 [(2R)(-)SUN3341, N-(2,6-dimethylphenyl)-2-(8-pyrrolizidine)propionamide]
ED50 [1]: 2.6 mg/kg | antiarrhythmic activity relative to the racemic compound ([1]; versus racemic compound [(±)-compound]): approximately 9 times | LD50 [2]: 67.6 mg/kg | toxicity relative to the racemic compound ([3]; in words, versus racemic compound): comparable to the racemic compound in toxicity | Therapeutic index [3]: 26.0 | therapeutic index, in words ([3]; versus racemic compound): remarkably improved therapeutic index

CCC(C(=O)Nc1c(C)cccc1C)C12CCCN1CCC2 (stereo not drawn)
ED50 [1]: 8.5 mg/kg | LD50 [2]: 26 mg/kg | Therapeutic index [3]: 3.1

Cc1ccc(NC(=O)C(C)C23CCCN2CCC3)cc1 (stereo not drawn)
ED50 [1]: 115 mg/kg | LD50 [2]: 400 mg/kg | Therapeutic index [3]: 3.4

Cc1cccc(C)c1NC(=O)[C@@H](C)C12CCCN1CCC2 [(2S)(+)-SUN3341, N-(2,6-dimethylphenyl)-2-(8-pyrrolizidine)propionamide]
ED50 [1]: 24 mg/kg | LD50 [2]: 79.3 mg/kg | Therapeutic index [3]: 3.3

Cc1cccc(C)c1NC(=O)C(c1ccccc1)C12CCCN1CCC2 (stereo not drawn)
ED50 [1]: 3.1 mg/kg | LD50 [2]: 22 mg/kg | Therapeutic index [3]: 7.1
